Target: T1, LiARG (recombinant arginase from L. infantum) (Leishmania infantum, UniProt A4IB49)
T1 construct: gene LINJ_35_1490; recombinant, purified
Test: urea release, colorimetric UREA CE kit, […] nm
Assay type: biochemical

O=c1c(O)c(-c2ccc(O)c(O)c2)oc2cc(O)cc(O)c12 [quercetin]
IC50: 23.2 µM

Reference: publication PMC11851448, “Meliponini Geopropolis Extracts Induce ROS Production and Death in Leishmania amazonensis Promastigotes and Axenic Amastigotes In Vitro” (Biology, 2025)
